For this data set, the system named is CCRIS mutagenicity, Ames/micronucleus/aberration tests. Nature of the data set: CCRIS mutagenicity studies.
[1] abbreviates: Test System: AMES SALMONELLA TYPHIMURIUM, Strain/Indicator: TA98, Metabolic Activation: NONE, Method: PREINCUBATION
The mark [2] stands for this setting: Test System: AMES SALMONELLA TYPHIMURIUM, Strain/Indicator: TA100, Metabolic Activation: HAMSTER, LIVER, S-9, AROCLOR 1254 (10%), Method: PREINCUBATION
[3] abbreviates: Test System: AMES SALMONELLA TYPHIMURIUM, Strain/Indicator: TA100, Metabolic Activation: NONE, Method: PREINCUBATION
Setting [4] is: Test System: AMES SALMONELLA TYPHIMURIUM, Strain/Indicator: TA100, Metabolic Activation: RAT, LIVER, S-9, AROCLOR 1254 (10%), Method: PREINCUBATION
Where [5] appears, read: Test System: AMES SALMONELLA TYPHIMURIUM, Strain/Indicator: TA1535, Metabolic Activation: NONE, Method: PREINCUBATION
Where [6] appears, read: Test System: AMES SALMONELLA TYPHIMURIUM, Strain/Indicator: TA98, Metabolic Activation: NONE, Method: STANDARD PLATE.
Where [7] appears, read: Test System: AMES SALMONELLA TYPHIMURIUM, Strain/Indicator: TA98, Metabolic Activation: RAT, LIVER, S-9, AROCLOR 1254, Method: STANDARD PLATE.
The mark [8] stands for this setting: Test System: AMES SALMONELLA TYPHIMURIUM, Strain/Indicator: TA100, Metabolic Activation: NONE, Method: STANDARD PLATE.
Where [9] appears, read: Test System: AMES SALMONELLA TYPHIMURIUM, Strain/Indicator: TA100, Metabolic Activation: RAT, LIVER, S-9, AROCLOR 1254, Method: STANDARD PLATE.

The values that follow come from PubChem BioAssay AID1259407 (Chemical Carcinogenesis Research Information System (CCRIS), 2018).

Active and inactive are the calls of the source. The rule behind the calls is not given here.

In the case of `Cc1cc(=O)[nH]c(=S)[nH]1`, the mutagenic call reads like this: (Test System: AMES SALMONELLA TYPHIMURIUM, Strain/Indicator: TA97, Metabolic Activation: HAMSTER, LIVER, S-9, AROCLOR 1254 (10 OR 30%), Method: PREINCUBATION) “inactive; negative”; (Test System: AMES SALMONELLA TYPHIMURIUM, Strain/Indicator: TA97, Metabolic Activation: NONE, Method: PREINCUBATION) “inactive; negative”; (Test System: AMES SALMONELLA TYPHIMURIUM, Strain/Indicator: TA97, Metabolic Activation: RAT, LIVER, S-9, AROCLOR 1254 (10 OR 30%), Method: PREINCUBATION) “inactive; negative”; (Test System: AMES SALMONELLA TYPHIMURIUM, Strain/Indicator: TA98, Metabolic Activation: HAMSTER, LIVER, S-9, AROCLOR 1254 (10 OR 30%), Method: PREINCUBATION) “inactive; negative”; under setting [1], “inactive; negative”; (Test System: AMES SALMONELLA TYPHIMURIUM, Strain/Indicator: TA98, Metabolic Activation: RAT, LIVER, S-9, AROCLOR 1254 (10 OR 30%), Method: PREINCUBATION) “inactive; negative”. The mutagenic call is, setting by setting: under setting [2], “inactive; negative”; (Test System: AMES SALMONELLA TYPHIMURIUM, Strain/Indicator: TA100, Metabolic Activation: HAMSTER, LIVER, S-9, AROCLOR 1254 (30%), Method: PREINCUBATION) “inactive; negative”; under setting [3], “inactive; negative”; under setting [4], “inactive; negative”; (Test System: AMES SALMONELLA TYPHIMURIUM, Strain/Indicator: TA100, Metabolic Activation: RAT, LIVER, S-9, AROCLOR 1254 (30%), Method: PREINCUBATION) “inactive; negative”; (Test System: AMES SALMONELLA TYPHIMURIUM, Strain/Indicator: TA1535, Metabolic Activation: HAMSTER, LIVER, S-9, AROCLOR 1254 (10 OR 30%), Method: PREINCUBATION) “inactive; negative”. Also, the mutagenic call is, setting by setting: under setting [5], “inactive; negative”; (Test System: AMES SALMONELLA TYPHIMURIUM, Strain/Indicator: TA1535, Metabolic Activation: RAT, LIVER, S-9, AROCLOR 1254 (10 OR 30%), Method: PREINCUBATION) “inactive; negative”.
For the compound `CN(C)c1nc(=O)n(C2CCCCC2)c(=O)n1C`, the mutagenic call was “active; positive” (End Point: In vitro chromosomal aberrations, Test System: Chinese hamster ovary (CHO) cells, Metabolic Activation: None) and “inactive; negative” (End Point: In vitro chromosomal aberrations, Test System: Chinese hamster ovary (CHO) cells, Metabolic Activation: S-9).
Consider `[Cl][Hg][Cl]`, for which the mutagenic call reads like this: (End Point: IN VITRO MICRONUCLEUS, Test System: CHINESE HAMSTER V79 CELLS, Metabolic Activation: NONE) “active; positive”; (End Point: IN VITRO MICRONUCLEUS, Test System: CHL/IU CELLS, Metabolic Activation: NONE) “inactive; negative”; (End Point: IN VITRO MICRONUCLEUS, Test System: HUMAN PERIPHERAL LYMPHOCYTES, Metabolic Activation: NONE) “active; positive”; (End Point: IN VIVO MICRONUCLEUS, Test System: RETICULOCYTES, Species: RAT, Strain/Sex: WISTAR/FEMALE, Route: ORAL (GAVAGE)) “active; positive”; (Test System: AMES SALMONELLA TYPHIMURIUM, Strain/Indicator: TA98, Metabolic Activation: HAMSTER, LIVER, S-9, AROCLOR 1254 (10%), Method: PREINCUBATION) “inactive; negative”; under setting [1], “inactive; negative”. Moreover, the mutagenic call runs as follows: (Test System: AMES SALMONELLA TYPHIMURIUM, Strain/Indicator: TA98, Metabolic Activation: RAT, LIVER, S-9, AROCLOR 1254 (10%), Method: PREINCUBATION) “inactive; negative”; under setting [2], “inactive; negative”; under setting [3], “inactive; negative”; under setting [4], “inactive; negative”; (Test System: AMES SALMONELLA TYPHIMURIUM, Strain/Indicator: TA102, Metabolic Activation: NONE, Method: STANDARD PLATE) “inactive; negative”; (Test System: AMES SALMONELLA TYPHIMURIUM, Strain/Indicator: TA1535, Metabolic Activation: HAMSTER, LIVER, S-9, AROCLOR 1254 (10%), Method: PREINCUBATION) “inactive; negative”. The mutagenic call is “inactive; negative” under setting [5]; “inactive; negative” (Test System: AMES SALMONELLA TYPHIMURIUM, Strain/Indicator: TA1535, Metabolic Activation: RAT, LIVER, S-9, AROCLOR 1254 (10%), Method: PREINCUBATION); “inactive; negative” (Test System: AMES SALMONELLA TYPHIMURIUM, Strain/Indicator: TA1537, Metabolic Activation: HAMSTER, LIVER, S-9, AROCLOR 1254 (10%), Method: PREINCUBATION); “inactive; negative” (Test System: AMES SALMONELLA TYPHIMURIUM, Strain/Indicator: TA1537, Metabolic Activation: NONE, Method: PREINCUBATION); “inactive; negative” (Test System: AMES SALMONELLA TYPHIMURIUM, Strain/Indicator: TA1537, Metabolic Activation: RAT, LIVER, S-9, AROCLOR 1254 (10%), Method: PREINCUBATION); “inactive; negative” (Test System: E. COLI, Strain/Indicator: WP2 UVRA, Metabolic Activation: NONE, Method: SPOT TEST). Further, the mutagenic call reads like this: (Test System: HUMAN BLOOD LYMPHOCYTES, Strain/Indicator: HUMAN BLOOD LYMPHOCYTES (HPRT)/6-THIOGUANINE, Metabolic Activation: NONE, Method: SUSPENSION/PLATE) “active; positive”; (Test System: MOUSE LYMPHOMA, Strain/Indicator: L5178Y (TK+/TK-), Metabolic Activation: NONE, Method: SUSPENSION/PLATE) “active; positive”.
For the compound `Nc1ccccc1C(F)(F)F`, the mutagenic call is “inactive; negative” under setting [6]; “inactive; negative” under setting [7]; “inactive; negative” under setting [8]; “inactive; negative” under setting [9]; “inactive; negative” (Test System: AMES SALMONELLA TYPHIMURIUM, Strain/Indicator: TA1535, Metabolic Activation: NONE, Method: STANDARD PLATE); “inactive; negative” (Test System: AMES SALMONELLA TYPHIMURIUM, Strain/Indicator: TA1535, Metabolic Activation: RAT, LIVER, S-9, AROCLOR 1254, Method: STANDARD PLATE). Besides, the mutagenic call runs as follows: (Test System: AMES SALMONELLA TYPHIMURIUM, Strain/Indicator: TA1537, Metabolic Activation: NONE, Method: STANDARD PLATE) “inactive; negative”; (Test System: AMES SALMONELLA TYPHIMURIUM, Strain/Indicator: TA1537, Metabolic Activation: RAT, LIVER, S-9, AROCLOR 1254, Method: STANDARD PLATE) “inactive; negative”; (Test System: AMES SALMONELLA TYPHIMURIUM, Strain/Indicator: TA1538, Metabolic Activation: NONE, Method: STANDARD PLATE) “inactive; negative”; (Test System: AMES SALMONELLA TYPHIMURIUM, Strain/Indicator: TA1538, Metabolic Activation: RAT, LIVER, S-9, AROCLOR 1254, Method: STANDARD PLATE) “inactive; negative”.
In the case of `O=C(/C=C/c1ccc(F)cc1)c1ccccc1`, the mutagenic call is “inactive; negative” under setting [6], “inactive; negative” under setting [7], “inactive; negative” under setting [8] and “inactive; negative” under setting [9].
With `CC1CN(/N=C/c2ccc([N+](=O)[O-])o2)C(=O)N1` (stereo unspecified), the mutagenic call (Test System: AMES SALMONELLA TYPHIMURIUM, Strain/Indicator: TA100, Metabolic Activation: RAT, LIVER, S-9, KC500 OR PHENOBARBITAL, Method: LIQUID SUSPENSION) is “active; positive”.
